Target: T1, ATX (Homo sapiens, UniProt Q13822)
T1 construct: conditioned serum-free medium (CCM) from MDA-MB-435 cells as the source of ATX; endogenous in cells; host or cells: MDA-MB-435 cells (about 10x concentrated conditioned serum-free medium)
Test: ATX inhibition assay (FS-3 substrate)
Format: biochemical
Conditions: for % ATX Acitivity (10 μM): 10 μM compound; for % ATX Acitivity (10 μM) / IC50: FS-3 substrate; for % Response: preliminary screen, FS-3 hydrolysis at one hour, normalized to vehicle control, mean±S.D., same values given at 10 μM in Table 5
Experimental: ATX inhibition was assayed using the substrate FS-3 (Echelon Biosciences, Inc., Salt Lake City, Utah, USA). The FS-3 assay used ˜10 times concentrated conditioned serum-free medium (CCM) from MDA-MB-435 cells as the source of ATX, while CCM comprised one-third of the total volume. The final volume for FS-3 was comprised of the substrate at varying concentrations and 30 μM charcoal-stripped fatty acid free BSA (Sigma Aldrich) in assay buffer (1 mM each CaCl2 and MgCl2, 5 mM KCl, 140 mM NaCl, 50 mM Tris pH 8.0).
All assays were performed in 96-well plates with data read at 1 minute intervals by a Synergy2 system (BioTek, Winooski, Vt.). The fluorescence produced upon the hydrolysis of FS-3 was monitored using an excitation wavelength of 485 nm and an emission wavelength of 528 nm at 37° C. (Ferguson et al., 2006). […] All readings were normalized to vehicle control after subtraction of fluorescence in the absence of CCM. Data are shown as the mean±S.D. of at least three wells.

[1] = Calculated IC50 data for the 30 active compounds

Nc1ccc(/N=N/c2ccc(-c3ccc(/N=N/c4c(S(=O)(=O)O)cc5cc(S(=O)(=O)O)c(/N=N/c6ccc([N+](=O)[O-])cc6)c(N)c5c4O)cc3)cc2)c2ccc(S(=O)(=O)O)cc12 [NSC 77520]
% ATX Acitivity (10 μM): 32 ± 2.7%
IC50: 4.07 µM

O=C(Nc1cccc(C(=O)Nc2ccc3cc(S(=O)(=O)O)cc(S(=O)(=O)O)c3c2)c1)Nc1cccc(C(=O)Nc2ccc3cc(S(=O)(=O)O)cc(S(=O)(=O)O)c3c2)c1.[Na+] [compound 12856]
% Response: 71 ± 5.4%

Nc1c(N=Nc2ccc([N+](=O)[O-])cc2)c(S(=O)(=O)O)cc2cc(S(=O)(=O)O)c(N=Nc3ccc([N+](=O)[O-])cc3)c(O)c12.[Na+] [compound 65544]
% Response: 76 ± 5.1%

CCCCCCCCCCCCCCCCOc1ccc(S(=O)(=O)N/N=c2/sc3ccc(S(=O)(=O)O)cc3n2C)cc1C(=O)O [compound 270069]
% Response: 97 ± 2.4%

COc1ccccc1N=Nc1c(S(=O)(=O)O)cc2cc(S(=O)(=O)O)c(N=Nc3ccc([N+](=O)[O-])cc3)c(N)c2c1O.[Na+] [compound 65829]
% Response: 71 ± 4.0%

COc1ccccc1N=Nc1c(S(=O)(=O)O)cc2cc(NC(=O)Nc3ccc4c(O)c(N=Nc5c(N)ccc6cc(S(=O)(=O)O)ccc56)c(S(=O)(=O)O)cc4c3)ccc2c1O [compound 45622]
IC50 [1]: 11.6 µM
% Response: 16 ± 3.1%

O=C(Nc1ccc2c(O)cc(S(=O)(=O)[O-])cc2c1)Nc1ccc2c(O)c(N=Nc3ccc4cc(S(=O)(=O)[O-])ccc4c3)c(S(=O)(=O)[O-])cc2c1.[Na+].[Na+].[Na+] [compound 45616]
% Response: 64 ± 3.0%

O=C(Nc1ccc2c(O)cc(S(=O)(=O)O)cc2c1)Nc1ccc2c(O)cc(S(=O)(=O)O)cc2c1 [compound 45174]
% Response: 89 ± 3.2%

Nc1c(N=Nc2ccc([N+](=O)[O-])cc2)c(S(=O)(=O)O)cc2cc(S(=O)(=O)O)c(N=Nc3ccc(Sc4ccc(N=Nc5ccc(O)cc5)cc4)cc3)c(O)c12.[Na+] [compound 79723]
% Response: 83 ± 3.2%

Nc1cccc(N=Nc2c(S(=O)(=O)[O-])cc3cc(NC(=O)Nc4ccc5c(O)c(N=Nc6cccc(N)c6)c(S(=O)(=O)[O-])cc5c4)ccc3c2O)c1.[Na+].[Na+] [compound 47750]
% Response: 68 ± 5.8%

O=C(Nc1ccc2cc(S(=O)(=O)O)cc(S(=O)(=O)O)c2c1)Nc1ccc2cc(S(=O)(=O)O)cc(S(=O)(=O)O)c2c1.[Na+] [compound 12857]
% Response: 100 ± 7.3%

Nc1c(S(=O)(=O)[O-])cc2cc(S(=O)(=O)[O-])ccc2c1N=Nc1ccc(-c2ccc(N=Nc3c(N)c(S(=O)(=O)[O-])cc4cc(S(=O)(=O)[O-])ccc34)c(S(=O)(=O)[O-])c2)cc1.[Na+].[Na+].[Na+].[Na+].[Na+] [compound 11243]
IC50 [1]: 12.6 µM
% Response: 49 ± 6.1%

Cc1c(N)cc(S(=O)(=O)O)c(N=Nc2ccc(-c3ccc(N=Nc4c(S(=O)(=O)O)cc5cc(S(=O)(=O)O)c(N=Nc6cccc([N+](=O)[O-])c6)c(N)c5c4O)cc3)cc2)c1N.[Na+] [compound 80903]
IC50 [1]: 5.88 µM
% Response: 32 ± 2.6%

CC(=O)Nc1ccc(N=Nc2c(S(=O)(=O)O)cc3cc(NC(=O)Nc4ccc5c(O)c(N=Nc6ccccc6)c(S(=O)(=O)O)cc5c4)ccc3c2O)cc1.[Na+] [compound 47762]
% Response: 83 ± 5.5%

CC(=O)NS(=O)(=O)c1ccc(NC(=O)c2ccccc2C(=O)O)cc1 [compound 4368]
% Response: 99 ± 2.8%

Nc1c(N=Nc2ccc([N+](=O)[O-])cc2)c(S(=O)(=O)[O-])cc2cc(S(=O)(=O)[O-])c(N=Nc3ccc(-c4ccc(N=Nc5ccc(O)c(C(=O)[O-])c5)cc4)cc3)c(O)c12.[Na+].[Na+].[Na+] [compound 8681]
% Response: 55 ± 5.5%

O=C(O)c1ccc2c(c1Nc1ccc(-c3ccc(Nc4c(C(=O)O)ccc5c4C(=O)c4ccccc4C5=O)cc3)cc1)C(=O)c1ccccc1C2=O [compound 7581]
% Response: 70 ± 4.8%

Nc1ccc2cc(S(=O)(=O)O)cc(O)c2c1N=Nc1ccc(-c2ccc(N=Nc3c(S(=O)(=O)O)cc4cc(S(=O)(=O)O)c(N=Nc5ccc([N+](=O)[O-])cc5)c(N)c4c3O)cc2)cc1 [compound 65855]
IC50 [1]: 17.4 µM
% Response: 43 ± 3.8%

O=C1C(Cl)=C(Nc2ccc(C(=O)Nc3ccc4cc(S(=O)(=O)O)cc(S(=O)(=O)O)c4c3)cc2)C(=O)C(Cl)=C1Nc1ccc(C(=O)Nc2ccc3cc(S(=O)(=O)O)cc(S(=O)(=O)O)c3c2)cc1.[Na+] [compound 12859]
IC50 [1]: 0.805 µM
% Response: 27 ± 2.8%

Cc1cc(C(O)(c2ccc(Nc3ccccc3)cc2)c2ccc(Nc3ccc(S(=O)(=O)O)cc3)cc2)ccc1N (stereo not shown) [NSC 5014]
% ATX Acitivity (10 μM): 39 ± 4.3%
IC50 (Table 5): 1.27 µM

Cc1ccc(Nc2cccc3c2C(=O)c2cccc(Nc4ccc(C)c(S(=O)(=O)O)c4)c2C3=O)cc1S(=O)(=O)O [compound 7804]
% Response: 96 ± 6.4%

O=C1C(Cl)=C(Nc2ccc(C(=O)Nc3ccc4cc(S(=O)(=O)O)cc(S(=O)(=O)O)c4c3)cc2)C(=O)C(Cl)=C1Nc1ccc(C(=O)Nc2ccc3cc(S(=O)(=O)O)cc(S(=O)(=O)O)c3c2)cc1 [NSC 12859]
% ATX Acitivity (10 μM): 27 ± 2.8%
IC50 (Table 5): 0.805 µM

O=C(/C=C\c1ccc(NCc2ccc(C(=O)O)cc2)cc1)CCl [compound 106024]
% Response: 62 ± 2.5%

COc1ccccc1N=Nc1c(S(=O)(=O)[O-])cc2cc(NC(=O)Nc3ccc4c(O)c(N=Nc5ccc(S(=O)(=O)[O-])cc5C)c(S(=O)(=O)[O-])cc4c3)ccc2c1O.[Na+].[Na+].[Na+] [compound 47764]
IC50 [1]: 18.2 µM
% Response: 41 ± 4.3%

Nc1ccc(N=Nc2ccc(-c3ccc(N=Nc4c(S(=O)(=O)O)cc5cc(S(=O)(=O)O)c(N=Nc6ccc([N+](=O)[O-])cc6)c(N)c5c4O)cc3)cc2)c2cc(S(=O)(=O)O)ccc12.Nc1ccc(N=Nc2ccc(-c3ccc(N=Nc4c(S(=O)(=O)O)cc5cc(S(=O)(=O)O)c(N=Nc6ccc([N+](=O)[O-])cc6)c(N)c5c4O)cc3)cc2)c2ccc(S(=O)(=O)O)cc12 [compound 77520]
IC50 [1]: 4.07 µM
% Response: 32 ± 2.7%

Nc1c(N=Nc2ccc([N+](=O)[O-])cc2)c(S(=O)(=O)O)cc2cc(S(=O)(=O)O)c(N=Nc3ccccc3)c(O)c12 [compound 7820]
% Response: 110 ± 5.7%

CC(C)(C)OC(=O)NC(CC(Cc1ccccc1)C(=O)O)C(=O)NC(CC(Cc1ccccc1)C(=O)O)C(=O)NC(CC(Cc1ccccc1)C(=O)O)C(=O)NCC(=O)Oc1ccc([N+](=O)[O-])cc1 (stereo not shown) [NSC 341348]
% ATX Acitivity (10 μM): 43 ± 2.8%
IC50: 2.5 µM

O=C(Nc1ccc(Sc2ccc(N=Nc3c(O)c(S(=O)(=O)O)cc4cc(S(=O)(=O)O)ccc34)cc2)cc1)c1ccc(N=Nc2c(O)c(S(=O)(=O)O)cc3cc(S(=O)(=O)O)ccc23)cc1 [compound 65860]
% Response: 66 ± 4.4%

Nc1ccc2cc(S(=O)(=O)O)cc(O)c2c1N=Nc1ccc(NC(=O)Nc2ccc(N=Nc3c(N)ccc4cc(S(=O)(=O)O)cc(O)c34)c(S(=O)(=O)O)c2)cc1S(=O)(=O)O [compound 11244]
% Response: 78 ± 7.0%

Source: patent publication US8343934B2, “Diverse lead compound autotaxin inhibitors” (University of Memphis, priority 2009, dated 2013)
